Non-standard residues stand in square brackets, D forms with d. NMeV = CN[C@H](C(=O)O)C(C)C
Assays:
[1] = target: T1, human αvβ3-integrin (Homo sapiens, UniProt P05106+P06756); conditions: previously published values; cited from earlier work
T1 construct: purchased R&D 3050-AV-050

[2] = target: T2, human α5β1-integrin (Homo sapiens, UniProt P05556+P08648); conditions: previously published values; cited from earlier work
T2 construct: purchased R&D 3230-A5-050

[3] = target: T3, human αvβ6-integrin (Homo sapiens, UniProt P06756+P18564); conditions: previously published values; cited from earlier work
T3 construct: purchased R&D 3817-AV-050

[4] = system: FAK, p-FAK, p44/42erk-1/2, p-p44/42erk-1/2 in αvβ3+ M21 cells; experiment: Western blot of FAK and p44/42erk-1/2 expression and activation, M21 cells; type: cell-based
Experimental: (§1) Since agonistic ligand performance requires integrin activation and signaling, by Western blot analysis, we studied whether the different ligands alter the expression levels and activation states of FAK and p44/42^(erk-1/2). For this, the respective target integrin-expressing tumor cell types were incubated with the corresponding subtype-selective ligand at a concentration of 1 μM for 24 h (Figure 8). […] Signal intensities of FAK and p44/42^(erk-1/2) expression and activation (p-FAK and p-p44/42^(erk-1/2)) on Western blots were evaluated by densitometry. Data are depicted as GAPDH-normalized fluorescence signal intensities as n-fold, by setting values obtained for the respective untreated cells to “1”. […] MAPK p44/42^(erk-1/2) expression was approximately 2.2-fold augmented, p44/42^(erk-1/2) by approximately 2.5-fold. It also raised activation of p-FAK and p-p44/42^(erk-1/2) by approximately 2.2-fold and 3.1-fold, respectively, in α5β1+ OV-MZ-6 cells. […] Additionally, it raised FAK (approximately 1.7-fold) and p-p44/42^(erk-1/2) (approximately 2.4-fold) in α5β1+ OV-MZ-6 cells.
(§2) Figure 8 Effects of ligands on cellular expression and activation of integrin-related signaling molecules FAK and p44/42^(erk-1/2). […] Signal intensities for FAK and p-FAK, respectively, were evaluated by use of the Bio-Rad Imager Gel Doc XR+ and a ChemiDoc XRS+ Systems and the software Image Lab. Shown are typical representative Western blot images and the corresponding histograms depicting GAPDH-normalized signal intensities as n-fold by setting the values obtained for untreated cells to “1” (drawn as black line). For each cell line, cutouts of identical gels are depicted.
(§3) In order to capture early and transient changes in signaling activation following ligand treatment, we next reduced the observation periods to 5, 30, or 60 min and assessed FAK expression and activation. […] Depicted are typical Western blot images and the corresponding densitometrical evaluations of GAPDH-normalized signal intensities as n-fold, by setting that of the respective untreated cell type to “1” (Figure 9). […]
(§4) The kinases (p-)p44/42^(erk-1/2) and (p-)FAK were detected as previously published.[15],[8] Briefly, cells were grown for 18 h on six-well plates in DMEM (0.45 Mio cells/well). After medium exchange, fresh medium with L1–L5 (concentration: 1.0 μM, 2 mL/well) was added, and cells were incubated for another 24 h at 37 °C. In a second series, cells were incubated with L1–L5 (1 μM or 1 nM) for 5, 30, or 60 min. Thereafter, the cellular proteins were extracted and processed by Western blotting. Proteins were visualized using the Pierce ECL chemiluminescent substrate (Thermo Fisher Scientific). Band signal intensities for (p-)p44/42^(erk-1/2) and (p-)FAK were evaluated using the Bio-Rad Imager Gel Doc XR + and ChemiDoc XRS + Systems and the software Image Lab. Differences in protein loading and blotting efficiency were normalized by reprobing the membranes with a monoclonal antibody directed to GAPDH. Signal intensities for protein bands of interest were normalized to those recorded for GAPDH. Typical Western blot images are depicted together with histograms summarizing the mean values of normalized fluorescence signal intensities as n-fold, by setting those obtained for untreated cells to “1”.

[5] = system: FAK, p-FAK, p44/42erk-1/2, p-p44/42erk-1/2 in α5β1+ OV-MZ-6 cells; experiment: Western blot of FAK and p44/42erk-1/2 expression and activation, OV-MZ-6 cells; type: cell-based; conditions: 1 μM, 5, 30 or 60 min
Experimental: as §1, §2, §3, §4

[6] = system: αvβ3+ M21 cells; experiment: Wound scratch cell migration assay, M21 cells; type: cell-based
Experimental: (§5) As a biological readout for integrin signaling, we analyzed ligand effects on cell adhesion and migration by wound scratch assays (Figure 10A,B). […] Microscopical images were taken directly after wounding the cell monolayers and then after 9, 24, 48, and 72 h, respectively.
(§6) Figure 10 (A) Effect of integrin ligands on cancer cell migration. […] Microscopical measurements of wound gaps were taken directly after setting the wound scratch and then after 9, 24, 48, and 72 h, respectively. Wound scratch assays were repeated at least three times. The extent of wound gap closure [%]/cell coverage was calculated by a python script utilizing Canny’s Edge Detection algorithm as described under Materials and summarized in the corresponding histograms (see also Scheme S5 in the Supporting Information). (B) Adhesion of M21, OV-MZ-6, and HN cells in the presence of the respective integrin targeting ligand at low (1 nM) and high (1 μM) concentrations. […] Depicted are typical microscopical images of the respective cell monolayers.
(§7) The assays were performed according to a modified protocol as previously published.[94] Cells were cultivated on fibronectin-coated 12-well cell culture plates until cell monolayers reached an approximately 80% confluency. Then, the wound scratch was set utilizing a 200 μL pipet tip. Subsequently, fresh culture medium was added in the absence or presence of L1–L5 (concentration: 1 μM or 1 nM), and microscopical images (Zeiss, Oberkochen, Germany) were taken at two identical positions of the wound gap directly after wounding and then at 9, 24, 48, or 72 h of further cell cultivation. Each wound scratch assay was repeated three times. A custom python script was implemented to analyze wound gap closure over time: after cropping the images, we used the OpenCV[95] implementation of Canny’s Edge Detection Algorithm[96] to ensure reliable measurements even with variable lighting conditions.[97] As a first step, a 5 × 5 Gaussian filter was applied to remove background noise. The smoothened images were then filtered by a Sobel kernel[98] and the magnitude and direction of the intensity gradient of the images calculated. Then, a non-maximum suppression algorithm was applied to identify relevant pixels that presumably contribute to edges. In a final step, threshold hysteresis was utilized to distinguish true edges from variations in intensity or the remaining background noise. The resulting images were then segmented and binarized by use of a grid filter and analyzed with respect to cell-covered area relative to the start image of each series.

[7] = system: α5β1+ OV-MZ-6 cells; experiment: Wound scratch cell migration assay, OV-MZ-6 cells; type: cell-based; conditions: OV-MZ-6 cells
Experimental: as §5, §6, §7
Scheme S5. Effect of integrin ligands on cancer cell migration (control cells to Fig. 10A in the main manuscript). a) Integrin αvβ3- OV-MZ-6 cells, α5β1- M21 cells, α5β1+ and αvβ3- and […]
mages of wound gaps were taken directly after setting the wound scratch and then after […], respectively. Wound scratch assays were repeated at least 3 times. The extent of wound gap closure [%]/cell coverage was calculated by a python script utilizing Canny’s Edge Detection algorithm11 as described in the Experimental Section and summarized in the corresponding histograms.
(1 picture or pasted object on this page, not shown here)

[8] = system: M21 cells; experiment: Cell adhesion in the presence of ligand, M21 cells; type: cell-based; conditions: 1 μM
Experimental: as §6

[9] = system: glioblastoma; conditions: phase II and III trials; cited from earlier work
[10] = system: tumor angiogenesis; conditions: low dose; cited from earlier work

T2 sequence (P08648 42-995 limits assumed): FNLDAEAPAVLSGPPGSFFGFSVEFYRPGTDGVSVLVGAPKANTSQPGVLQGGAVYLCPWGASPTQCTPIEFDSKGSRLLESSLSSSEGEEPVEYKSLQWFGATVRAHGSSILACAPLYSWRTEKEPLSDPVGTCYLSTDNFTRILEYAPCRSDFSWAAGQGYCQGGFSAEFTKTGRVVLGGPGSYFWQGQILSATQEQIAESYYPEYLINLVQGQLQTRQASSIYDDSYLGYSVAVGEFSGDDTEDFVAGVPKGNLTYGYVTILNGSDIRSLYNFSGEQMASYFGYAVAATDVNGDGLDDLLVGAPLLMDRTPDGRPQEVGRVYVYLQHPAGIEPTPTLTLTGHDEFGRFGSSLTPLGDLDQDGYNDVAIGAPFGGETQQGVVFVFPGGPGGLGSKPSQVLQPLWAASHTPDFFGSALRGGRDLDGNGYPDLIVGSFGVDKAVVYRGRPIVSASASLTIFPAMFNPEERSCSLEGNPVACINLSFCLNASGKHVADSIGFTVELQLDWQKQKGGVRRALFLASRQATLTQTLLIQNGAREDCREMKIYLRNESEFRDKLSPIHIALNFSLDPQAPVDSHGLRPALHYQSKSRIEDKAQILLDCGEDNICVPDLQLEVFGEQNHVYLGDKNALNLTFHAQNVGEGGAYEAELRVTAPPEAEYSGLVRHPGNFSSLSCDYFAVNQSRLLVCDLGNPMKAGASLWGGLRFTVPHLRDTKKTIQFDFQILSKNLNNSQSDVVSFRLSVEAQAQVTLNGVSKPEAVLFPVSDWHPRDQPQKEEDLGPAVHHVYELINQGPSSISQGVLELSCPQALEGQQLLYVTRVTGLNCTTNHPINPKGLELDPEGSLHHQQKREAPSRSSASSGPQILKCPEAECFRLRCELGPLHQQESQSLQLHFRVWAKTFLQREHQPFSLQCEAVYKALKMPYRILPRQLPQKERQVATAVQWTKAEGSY
T2 sequence (P05556 21-728 limits assumed): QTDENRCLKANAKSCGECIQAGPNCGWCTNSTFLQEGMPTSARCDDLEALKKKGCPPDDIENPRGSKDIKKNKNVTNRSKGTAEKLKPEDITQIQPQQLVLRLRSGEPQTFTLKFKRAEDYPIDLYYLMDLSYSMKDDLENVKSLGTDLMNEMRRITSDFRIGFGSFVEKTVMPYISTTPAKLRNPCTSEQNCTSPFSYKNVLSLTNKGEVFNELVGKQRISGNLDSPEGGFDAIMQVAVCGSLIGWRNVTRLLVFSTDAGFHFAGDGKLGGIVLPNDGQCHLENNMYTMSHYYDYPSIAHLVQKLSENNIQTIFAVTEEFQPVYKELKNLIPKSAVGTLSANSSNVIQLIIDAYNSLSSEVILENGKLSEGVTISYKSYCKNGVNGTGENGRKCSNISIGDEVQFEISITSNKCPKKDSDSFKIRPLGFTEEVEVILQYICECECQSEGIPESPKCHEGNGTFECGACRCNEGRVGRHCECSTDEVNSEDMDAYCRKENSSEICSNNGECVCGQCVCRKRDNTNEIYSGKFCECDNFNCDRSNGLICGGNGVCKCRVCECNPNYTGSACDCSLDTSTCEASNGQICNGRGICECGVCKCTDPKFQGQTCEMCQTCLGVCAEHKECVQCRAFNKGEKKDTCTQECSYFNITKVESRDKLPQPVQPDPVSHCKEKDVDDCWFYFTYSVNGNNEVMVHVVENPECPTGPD
T1 sequence (P06756 31-992 limits assumed): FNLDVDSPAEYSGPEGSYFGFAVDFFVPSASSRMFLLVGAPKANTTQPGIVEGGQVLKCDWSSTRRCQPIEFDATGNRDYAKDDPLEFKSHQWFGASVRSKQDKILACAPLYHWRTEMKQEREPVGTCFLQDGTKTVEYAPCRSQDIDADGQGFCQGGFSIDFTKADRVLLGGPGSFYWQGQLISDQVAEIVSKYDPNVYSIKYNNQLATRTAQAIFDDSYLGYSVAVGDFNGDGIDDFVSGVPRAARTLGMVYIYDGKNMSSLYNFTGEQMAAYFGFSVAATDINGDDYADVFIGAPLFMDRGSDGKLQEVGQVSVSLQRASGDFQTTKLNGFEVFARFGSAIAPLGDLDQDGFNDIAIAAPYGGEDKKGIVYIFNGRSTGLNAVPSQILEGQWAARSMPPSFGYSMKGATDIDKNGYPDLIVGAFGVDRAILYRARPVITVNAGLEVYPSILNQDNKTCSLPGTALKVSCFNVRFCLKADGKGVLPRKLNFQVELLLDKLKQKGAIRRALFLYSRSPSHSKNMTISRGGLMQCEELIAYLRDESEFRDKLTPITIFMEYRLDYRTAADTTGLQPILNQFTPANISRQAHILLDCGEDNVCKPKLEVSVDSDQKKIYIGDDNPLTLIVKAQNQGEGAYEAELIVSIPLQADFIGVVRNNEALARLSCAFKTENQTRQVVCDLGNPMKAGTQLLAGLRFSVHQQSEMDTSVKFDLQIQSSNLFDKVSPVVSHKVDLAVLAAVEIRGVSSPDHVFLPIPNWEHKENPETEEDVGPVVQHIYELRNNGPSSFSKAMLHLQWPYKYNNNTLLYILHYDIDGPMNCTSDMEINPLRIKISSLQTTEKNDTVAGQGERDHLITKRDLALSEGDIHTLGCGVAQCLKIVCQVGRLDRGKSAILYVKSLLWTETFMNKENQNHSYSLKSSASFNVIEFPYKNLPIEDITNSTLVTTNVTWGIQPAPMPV
T1 sequence (P05106 27-718 limits assumed): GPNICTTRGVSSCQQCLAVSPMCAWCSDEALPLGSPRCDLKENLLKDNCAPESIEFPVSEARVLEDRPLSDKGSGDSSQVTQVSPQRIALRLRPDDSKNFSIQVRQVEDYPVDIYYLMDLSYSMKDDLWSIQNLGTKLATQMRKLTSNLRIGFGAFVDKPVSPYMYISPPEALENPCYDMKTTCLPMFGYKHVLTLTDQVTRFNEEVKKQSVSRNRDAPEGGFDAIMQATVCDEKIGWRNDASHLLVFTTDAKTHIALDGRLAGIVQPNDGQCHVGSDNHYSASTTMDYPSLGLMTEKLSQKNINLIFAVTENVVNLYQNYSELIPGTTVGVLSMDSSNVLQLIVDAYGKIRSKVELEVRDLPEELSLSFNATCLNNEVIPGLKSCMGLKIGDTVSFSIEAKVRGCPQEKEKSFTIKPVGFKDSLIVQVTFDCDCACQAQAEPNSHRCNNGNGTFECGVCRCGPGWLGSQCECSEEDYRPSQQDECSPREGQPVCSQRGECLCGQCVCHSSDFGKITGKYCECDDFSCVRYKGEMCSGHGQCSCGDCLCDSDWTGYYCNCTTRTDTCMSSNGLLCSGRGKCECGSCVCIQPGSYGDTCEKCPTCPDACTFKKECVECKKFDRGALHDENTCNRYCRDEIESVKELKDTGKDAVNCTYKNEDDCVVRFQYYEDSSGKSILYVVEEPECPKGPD
T3 sequence (P06756 31-992 limits assumed): as the sequence (P06756 31-992 limits assumed) above
T3 sequence (P18564 22-707 limits assumed): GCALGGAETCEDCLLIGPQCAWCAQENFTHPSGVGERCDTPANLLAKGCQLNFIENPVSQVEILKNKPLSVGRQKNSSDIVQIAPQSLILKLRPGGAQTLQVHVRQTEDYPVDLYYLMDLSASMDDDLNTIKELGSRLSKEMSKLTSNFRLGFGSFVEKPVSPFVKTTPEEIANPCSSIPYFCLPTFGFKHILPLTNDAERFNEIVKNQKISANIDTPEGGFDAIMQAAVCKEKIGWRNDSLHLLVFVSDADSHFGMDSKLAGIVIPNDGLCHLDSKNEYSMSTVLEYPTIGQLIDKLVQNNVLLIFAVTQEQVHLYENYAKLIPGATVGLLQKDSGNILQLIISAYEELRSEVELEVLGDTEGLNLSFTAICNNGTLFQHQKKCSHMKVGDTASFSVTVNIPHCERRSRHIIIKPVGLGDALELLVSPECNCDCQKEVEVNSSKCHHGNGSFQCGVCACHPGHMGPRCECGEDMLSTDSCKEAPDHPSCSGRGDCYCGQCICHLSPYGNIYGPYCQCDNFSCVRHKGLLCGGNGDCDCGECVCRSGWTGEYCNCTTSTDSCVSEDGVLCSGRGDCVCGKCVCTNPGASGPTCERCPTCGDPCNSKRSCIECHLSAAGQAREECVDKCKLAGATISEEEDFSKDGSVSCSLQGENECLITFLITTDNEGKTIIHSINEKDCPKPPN

RTDLDSLRT [linear peptide, internal standard for αvβ6, reference compound]
IC50 [1]: > 1000 nM
IC50 [2]: > 1000 nM
IC50 [3]: 29.5 ± 4.5 nM

c(RGDf(NMe)V) (cyclo(RGD[dF][NMeV])) [cilengitide (L2), reference compound]
FAK expression versus untreated cells ([4]; 1 nM, 5, 30 or 60 min): comparable to or slightly higher than in untreated
FAK expression versus untreated cells ([4]; 1 μM, 5, 30 or 60 min): comparable to or slightly higher than in untreated
Decrease of p-FAK levels within 60 min ([4]; both concentrations (1 nM, 1 μM)): approximately threefold
p-FAK levels versus untreated cells ([4]; both concentrations (1 nM, 1 μM), up to 60 min): almost comparable to that in untreated M21 cells
FAK expression versus untreated cells [5]: comparable to or slightly higher than in untreated
Effect on wound gap closure / cell migration ([6]; 1 nM): increased wound gap closure
Effect on wound gap closure / cell migration ([6]; 1 μM): markedly delaying wound gap closure
Reduction of wound gap closure ([6]; 1 μM, after 9 h): approximately threefold
Cell coverage (wound gap closure) ([6]; 1 μM, within 72 h): approximately 40%
Effect on wound gap closure / cell migration ([7]; 1 nM): not effective
Cell coverage (wound gap closure) ([7]; 1 μM, within 72 h): approximately 60%
Effect on cell adhesion / attachment [8]: abrogating adhesion and spreading
Effect on cell adhesion / attachment ([8]; listed as CIL/L2): performed as inhibitors of cell attachment
Clinical efficacy [9]: poor clinical efficacy
Effect on tumor angiogenesis [10]: rather promoted than inhibited tumor angiogenesis
